According to ChEMBL document CHEMBL5291721, “A preclinical secondary pharmacology resource illuminates target-adverse drug reaction associations of marketed drugs” (Nat Commun, 2023):

Key:
[1] = molecular target: T1, Neuropeptide Y receptor type 1 (Homo sapiens, UniProt P25929)
T1 sequence (P25929 whole entry): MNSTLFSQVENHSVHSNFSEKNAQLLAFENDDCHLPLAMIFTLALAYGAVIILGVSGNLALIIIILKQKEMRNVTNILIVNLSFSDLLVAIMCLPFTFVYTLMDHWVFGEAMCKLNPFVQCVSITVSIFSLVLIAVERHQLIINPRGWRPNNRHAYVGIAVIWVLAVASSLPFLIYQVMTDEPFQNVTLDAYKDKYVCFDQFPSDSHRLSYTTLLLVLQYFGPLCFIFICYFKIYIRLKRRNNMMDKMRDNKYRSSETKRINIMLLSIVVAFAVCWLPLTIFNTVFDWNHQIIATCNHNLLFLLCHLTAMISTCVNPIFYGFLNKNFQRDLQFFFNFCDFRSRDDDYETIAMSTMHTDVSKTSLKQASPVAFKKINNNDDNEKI

[2] = molecular target: Voltage-dependent L-type calcium channel subunit alpha-1C (Rattus norvegicus, UniProt P22002); assay type: functional
Melanocortin receptor 3 = Melanocortin receptor 3 (Homo sapiens, UniProt P41968)
D(1A) dopamine receptor [3] = molecular target: T2, D(1A) dopamine receptor (Homo sapiens, UniProt P21728); assay type: functional, cell-based
Motilin receptor = Motilin receptor (Homo sapiens, UniProt O43193)
Progesterone receptor [4] = molecular target: T3, Progesterone receptor (Homo sapiens, UniProt P06401); assay type: functional
T3 sequence (P06401 whole entry): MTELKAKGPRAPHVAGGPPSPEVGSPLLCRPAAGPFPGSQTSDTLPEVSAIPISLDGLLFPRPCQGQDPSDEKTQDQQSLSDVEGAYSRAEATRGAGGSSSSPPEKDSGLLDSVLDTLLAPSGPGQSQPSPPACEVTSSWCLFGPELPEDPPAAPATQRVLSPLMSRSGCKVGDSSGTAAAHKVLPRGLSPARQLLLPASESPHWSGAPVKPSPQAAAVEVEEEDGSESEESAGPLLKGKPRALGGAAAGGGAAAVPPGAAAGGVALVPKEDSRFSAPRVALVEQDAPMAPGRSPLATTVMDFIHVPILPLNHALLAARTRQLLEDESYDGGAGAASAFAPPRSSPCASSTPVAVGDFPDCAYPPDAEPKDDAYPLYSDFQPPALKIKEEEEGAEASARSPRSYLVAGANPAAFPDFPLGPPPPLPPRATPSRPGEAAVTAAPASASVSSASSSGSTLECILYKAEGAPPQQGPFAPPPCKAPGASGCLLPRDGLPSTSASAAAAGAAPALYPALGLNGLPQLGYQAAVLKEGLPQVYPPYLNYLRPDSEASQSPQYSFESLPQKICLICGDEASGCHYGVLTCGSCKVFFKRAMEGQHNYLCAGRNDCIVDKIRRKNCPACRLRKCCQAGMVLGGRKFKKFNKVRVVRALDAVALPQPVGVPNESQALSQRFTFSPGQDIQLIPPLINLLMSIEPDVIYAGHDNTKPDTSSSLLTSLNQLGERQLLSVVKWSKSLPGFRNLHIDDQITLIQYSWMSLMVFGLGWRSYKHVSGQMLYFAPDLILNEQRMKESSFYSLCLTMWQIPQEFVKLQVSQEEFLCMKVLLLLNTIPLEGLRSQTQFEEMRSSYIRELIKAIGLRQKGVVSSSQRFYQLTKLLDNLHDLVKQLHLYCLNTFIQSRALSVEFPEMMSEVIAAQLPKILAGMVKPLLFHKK

[5] = molecular target: Sodium-dependent noradrenaline transporter (Homo sapiens, UniProt P23975)
[6] = molecular target: T4, Alpha-2B adrenergic receptor (Homo sapiens, UniProt P18089)
T4 sequence (P18089 whole entry): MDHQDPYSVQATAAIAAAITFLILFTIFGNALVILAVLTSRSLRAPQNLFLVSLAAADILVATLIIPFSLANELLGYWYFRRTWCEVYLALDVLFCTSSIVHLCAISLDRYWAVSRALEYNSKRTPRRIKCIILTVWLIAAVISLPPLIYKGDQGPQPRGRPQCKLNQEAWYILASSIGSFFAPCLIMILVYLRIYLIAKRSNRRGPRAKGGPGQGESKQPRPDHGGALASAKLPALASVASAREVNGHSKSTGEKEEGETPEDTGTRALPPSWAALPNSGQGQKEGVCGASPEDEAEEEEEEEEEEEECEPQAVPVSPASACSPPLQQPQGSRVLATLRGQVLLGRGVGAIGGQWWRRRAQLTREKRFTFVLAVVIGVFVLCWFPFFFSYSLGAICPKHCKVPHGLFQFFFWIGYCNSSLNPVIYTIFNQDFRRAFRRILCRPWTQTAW

Mu-type opioid receptor = Mu-type opioid receptor (Homo sapiens, UniProt P35372)
Progesterone receptor [7] = molecular target: T3, Progesterone receptor
D(1A) dopamine receptor [8] = molecular target: T2, D(1A) dopamine receptor
Note: assay procedure not described here.

Chain of Voltage-dependent L-type calcium channel subunit alpha-1C (P22002 whole entry): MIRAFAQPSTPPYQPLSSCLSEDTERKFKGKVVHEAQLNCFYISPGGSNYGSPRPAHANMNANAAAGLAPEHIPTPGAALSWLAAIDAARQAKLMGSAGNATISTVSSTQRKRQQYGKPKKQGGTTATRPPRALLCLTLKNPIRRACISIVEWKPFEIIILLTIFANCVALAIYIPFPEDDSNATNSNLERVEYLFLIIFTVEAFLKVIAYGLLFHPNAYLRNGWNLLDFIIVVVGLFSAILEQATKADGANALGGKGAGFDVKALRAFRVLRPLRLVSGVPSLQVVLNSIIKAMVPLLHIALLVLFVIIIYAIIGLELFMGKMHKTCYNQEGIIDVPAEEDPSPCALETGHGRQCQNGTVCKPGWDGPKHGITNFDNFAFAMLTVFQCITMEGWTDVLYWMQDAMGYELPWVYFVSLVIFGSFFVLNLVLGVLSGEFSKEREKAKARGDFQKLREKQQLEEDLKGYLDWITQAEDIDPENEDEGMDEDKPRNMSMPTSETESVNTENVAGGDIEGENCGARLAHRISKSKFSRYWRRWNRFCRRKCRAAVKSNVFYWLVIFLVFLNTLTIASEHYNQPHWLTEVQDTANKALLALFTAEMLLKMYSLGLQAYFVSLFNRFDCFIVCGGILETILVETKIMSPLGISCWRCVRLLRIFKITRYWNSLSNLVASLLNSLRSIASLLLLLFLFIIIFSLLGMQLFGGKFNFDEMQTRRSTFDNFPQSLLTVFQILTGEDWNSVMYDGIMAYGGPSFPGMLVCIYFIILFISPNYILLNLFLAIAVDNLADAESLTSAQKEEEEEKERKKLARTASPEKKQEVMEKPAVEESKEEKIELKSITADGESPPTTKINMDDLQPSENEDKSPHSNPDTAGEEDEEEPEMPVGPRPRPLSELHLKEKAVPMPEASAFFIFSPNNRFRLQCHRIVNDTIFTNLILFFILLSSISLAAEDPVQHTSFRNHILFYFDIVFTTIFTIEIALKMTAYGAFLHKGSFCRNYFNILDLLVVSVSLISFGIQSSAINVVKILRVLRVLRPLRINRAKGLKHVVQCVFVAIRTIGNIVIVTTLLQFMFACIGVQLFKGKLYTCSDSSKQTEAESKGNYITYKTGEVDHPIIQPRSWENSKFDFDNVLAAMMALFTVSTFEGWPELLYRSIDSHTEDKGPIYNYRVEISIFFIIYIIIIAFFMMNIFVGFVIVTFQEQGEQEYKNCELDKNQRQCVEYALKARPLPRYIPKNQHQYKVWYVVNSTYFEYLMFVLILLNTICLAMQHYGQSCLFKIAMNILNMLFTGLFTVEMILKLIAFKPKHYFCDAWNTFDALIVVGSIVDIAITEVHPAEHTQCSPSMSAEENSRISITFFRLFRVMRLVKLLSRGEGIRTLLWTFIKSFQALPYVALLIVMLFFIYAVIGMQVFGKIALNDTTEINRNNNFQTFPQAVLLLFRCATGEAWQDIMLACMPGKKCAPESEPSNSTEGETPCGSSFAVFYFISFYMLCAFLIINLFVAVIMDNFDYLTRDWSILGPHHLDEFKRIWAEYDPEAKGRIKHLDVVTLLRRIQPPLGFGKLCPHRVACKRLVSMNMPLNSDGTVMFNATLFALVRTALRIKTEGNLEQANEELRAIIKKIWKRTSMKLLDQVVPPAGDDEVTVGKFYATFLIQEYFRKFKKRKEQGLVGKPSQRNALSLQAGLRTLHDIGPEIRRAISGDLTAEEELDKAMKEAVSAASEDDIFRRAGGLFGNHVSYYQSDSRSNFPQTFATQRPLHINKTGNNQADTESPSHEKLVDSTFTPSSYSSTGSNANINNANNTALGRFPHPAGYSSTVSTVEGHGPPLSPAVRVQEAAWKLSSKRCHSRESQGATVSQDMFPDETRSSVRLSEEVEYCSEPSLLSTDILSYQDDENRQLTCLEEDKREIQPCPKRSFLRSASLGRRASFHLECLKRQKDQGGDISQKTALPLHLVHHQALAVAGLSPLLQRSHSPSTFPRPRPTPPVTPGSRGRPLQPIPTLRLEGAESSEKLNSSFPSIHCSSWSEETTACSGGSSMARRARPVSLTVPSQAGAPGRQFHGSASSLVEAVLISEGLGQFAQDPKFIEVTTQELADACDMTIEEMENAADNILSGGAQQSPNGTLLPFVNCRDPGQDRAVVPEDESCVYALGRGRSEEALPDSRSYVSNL
Chain of Motilin receptor (O43193 whole entry): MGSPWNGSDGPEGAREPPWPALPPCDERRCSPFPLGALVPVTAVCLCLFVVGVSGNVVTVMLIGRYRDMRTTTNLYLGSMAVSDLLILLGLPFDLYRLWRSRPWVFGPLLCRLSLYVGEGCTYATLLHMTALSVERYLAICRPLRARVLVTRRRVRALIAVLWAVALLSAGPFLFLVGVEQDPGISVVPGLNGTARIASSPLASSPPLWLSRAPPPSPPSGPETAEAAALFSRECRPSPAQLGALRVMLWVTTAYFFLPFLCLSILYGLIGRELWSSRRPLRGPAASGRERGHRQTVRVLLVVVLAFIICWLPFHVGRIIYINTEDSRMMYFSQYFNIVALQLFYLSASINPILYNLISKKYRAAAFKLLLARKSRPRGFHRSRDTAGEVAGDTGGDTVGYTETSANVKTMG
Chain of Sodium-dependent noradrenaline transporter (P23975 whole entry): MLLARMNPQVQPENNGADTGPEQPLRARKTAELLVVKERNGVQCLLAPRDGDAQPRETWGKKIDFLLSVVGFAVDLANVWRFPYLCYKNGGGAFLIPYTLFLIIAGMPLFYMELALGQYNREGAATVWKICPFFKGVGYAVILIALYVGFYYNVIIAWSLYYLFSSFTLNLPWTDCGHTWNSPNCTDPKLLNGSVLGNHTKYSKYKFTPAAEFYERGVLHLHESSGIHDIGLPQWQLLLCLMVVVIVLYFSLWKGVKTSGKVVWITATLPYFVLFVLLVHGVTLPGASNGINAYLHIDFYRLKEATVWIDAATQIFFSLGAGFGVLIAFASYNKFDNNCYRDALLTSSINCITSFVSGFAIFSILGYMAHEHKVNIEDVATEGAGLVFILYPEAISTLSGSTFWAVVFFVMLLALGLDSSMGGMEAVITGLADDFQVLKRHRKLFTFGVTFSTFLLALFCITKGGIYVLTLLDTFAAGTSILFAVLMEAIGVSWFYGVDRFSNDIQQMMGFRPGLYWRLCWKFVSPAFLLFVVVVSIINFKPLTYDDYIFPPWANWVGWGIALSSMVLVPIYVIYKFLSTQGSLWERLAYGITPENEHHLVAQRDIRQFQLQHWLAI
Chain of Melanocortin receptor 3 (P41968 whole entry): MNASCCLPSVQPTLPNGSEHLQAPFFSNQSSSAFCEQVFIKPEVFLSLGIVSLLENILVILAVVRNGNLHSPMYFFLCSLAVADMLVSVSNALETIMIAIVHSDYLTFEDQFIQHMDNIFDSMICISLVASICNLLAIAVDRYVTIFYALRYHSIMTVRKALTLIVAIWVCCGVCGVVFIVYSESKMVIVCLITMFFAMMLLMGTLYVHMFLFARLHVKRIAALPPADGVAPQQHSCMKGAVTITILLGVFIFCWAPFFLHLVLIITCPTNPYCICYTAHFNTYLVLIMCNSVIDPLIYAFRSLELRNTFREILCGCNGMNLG
Chain of Mu-type opioid receptor (P35372 whole entry): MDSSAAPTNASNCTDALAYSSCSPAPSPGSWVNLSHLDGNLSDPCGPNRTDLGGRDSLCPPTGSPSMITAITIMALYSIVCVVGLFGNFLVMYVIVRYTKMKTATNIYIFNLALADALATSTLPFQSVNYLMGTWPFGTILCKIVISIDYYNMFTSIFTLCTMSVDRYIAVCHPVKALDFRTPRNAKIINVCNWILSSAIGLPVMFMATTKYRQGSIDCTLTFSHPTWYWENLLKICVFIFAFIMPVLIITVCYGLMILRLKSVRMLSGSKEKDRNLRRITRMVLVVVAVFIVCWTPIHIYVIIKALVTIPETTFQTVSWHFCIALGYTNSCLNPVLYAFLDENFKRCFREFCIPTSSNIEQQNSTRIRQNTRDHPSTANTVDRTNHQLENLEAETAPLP
T2 sequence (P21728 whole entry): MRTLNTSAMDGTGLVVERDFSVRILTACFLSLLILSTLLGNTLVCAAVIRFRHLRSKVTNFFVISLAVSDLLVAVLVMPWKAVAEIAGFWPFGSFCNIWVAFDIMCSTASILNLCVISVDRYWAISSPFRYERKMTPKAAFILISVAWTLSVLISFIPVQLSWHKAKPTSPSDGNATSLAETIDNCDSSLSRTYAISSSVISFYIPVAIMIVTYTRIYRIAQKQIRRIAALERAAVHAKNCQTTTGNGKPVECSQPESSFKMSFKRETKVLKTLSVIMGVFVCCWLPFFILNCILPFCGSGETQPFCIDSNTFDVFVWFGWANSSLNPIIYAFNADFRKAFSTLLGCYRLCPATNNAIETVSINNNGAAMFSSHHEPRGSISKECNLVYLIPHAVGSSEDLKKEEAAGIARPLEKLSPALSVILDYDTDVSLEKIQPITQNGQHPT

SMILES | AC50 [1] | AC50 [2] | AC50 (Melanocortin receptor 3) | AC50 (D(1A) dopamine receptor [3]) | AC50 (Motilin receptor) | AC50 (Progesterone receptor [4]) | AC50 [5] | AC50 [6] | AC50 (Mu-type opioid receptor) | AC50 (Progesterone receptor [7]) | AC50 (D(1A) dopamine receptor [8])
C[N+](C)(C)CCOP(=O)([O-])OC[C@H](O)CO | > 30 µM | > 30 µM | > 30 µM | > 30 µM | > 30 µM | > 30 µM | > 30 µM | – | – | – | –
CN(C)C/C=C/C(=O)Nc1cc2c(Nc3ccc(F)c(Cl)c3)ncnc2cc1O[C@H]1CCOC1 [AFATINIB] | > 30 µM | – | 28 µM | > 30 µM | > 30 µM | > 30 µM | > 30 µM | 0.87 µM | – | – | –
CCC1(c2ccc(N)cc2)CCC(=O)NC1=O (stereo not drawn) [AMINOGLUTETHIMIDE] | > 30 µM | – | > 30 µM | > 30 µM | > 30 µM | > 30 µM | > 30 µM | – | > 30 µM | – | –
CC(=O)OC[C@H]1O[C@@H](n2ncc(=O)[nH]c2=O)[C@H](OC(C)=O)[C@@H]1OC(C)=O [AZARIBINE] | – | – | – | – | – | – | – | – | – | > 30 µM | –
CC1=C(C(=O)OC(C)C)C(c2cccc([N+](=O)[O-])c2)C(C(=O)OC2CN(C(c3ccccc3)c3ccccc3)C2)=C(N)N1 (stereo not drawn) [AZELNIDIPINE] | > 30 µM | 0.092 µM | > 30 µM | > 30 µM | 16 µM | > 3 µM | 5.8 µM | > 30 µM | – | – | –
CC(Cc1cccc(C(F)(F)F)c1)NCCOC(=O)c1ccccc1 (stereo not drawn) [BENFLUOREX] | > 30 µM | – | > 30 µM | > 30 µM | > 30 µM | > 30 µM | 23 µM | – | 17 µM | – | –
O=C(O)COCCN1CCN(C(c2ccccc2)c2ccc(Cl)cc2)CC1 (stereo not drawn) [CETIRIZINE] | > 30 µM | – | > 30 µM | – | > 10 µM | – | – | > 10 µM | – | > 30 µM | –
NC[C@H]1CC[C@H](C(=O)Oc2ccc(CCC(=O)O)cc2)CC1 [CETRAXATE] | – | – | – | > 30 µM | – | – | – | – | – | > 30 µM | > 30 µM
C=C1CC[C@H](O)C/C1=C/C=C1\CCC[C@]2(C)[C@@H]([C@H](C)CCCC(C)C)CC[C@@H]12 [CHOLECALCIFEROL] | – | – | – | – | – | – | – | – | – | – | > 30 µM
C[C@H](CCC(=O)O)[C@H]1CC[C@H]2[C@@H]3[C@H](O)C[C@@H]4C[C@H](O)CC[C@]4(C)[C@H]3C[C@H](O)[C@]12C [CHOLIC ACID] | – | – | – | – | – | – | – | – | – | > 30 µM | > 30 µM
CN[C@]1(c2ccccc2Cl)CCCCC1=O [ESKETAMINE] | > 30 µM | > 30 µM | > 30 µM | > 30 µM | > 30 µM | > 30 µM | > 30 µM | – | – | – | –
CC(O)(P(=O)(O)O)P(=O)(O)O [ETIDRONIC ACID] | – | – | – | – | – | – | – | – | – | – | > 30 µM
CNCCc1ccc(OC(=O)C(C)C)c(OC(=O)C(C)C)c1 [IBOPAMINE] | > 30 µM | 18 µM | > 30 µM | 0.0442 µM | > 30 µM | > 30 µM | > 30 µM | > 30 µM | – | – | –
CCOC(=O)C1=C(C)NC(C)=C(C(=O)OCC)C1c1ccccc1/C=C/C(=O)OC(C)(C)C [LACIDIPINE] | > 30 µM | 0.32 µM | > 30 µM | > 30 µM | > 30 µM | 29 µM | > 30 µM | – | – | – | –
CCC[C@@H]1C[C@@H](C(=O)N[C@@H]([C@H]2O[C@H](SC)[C@H](O)[C@@H](O)[C@H]2O)[C@@H](C)O)N(C)C1 [LINCOMYCIN] | > 10 µM | > 10 µM | > 10 µM | > 10 µM | > 10 µM | – | > 10 µM | – | > 30 µM | – | –
COC(=O)C1=C(C)NC(C)=C(C(=O)OCCN2CCN(C(c3ccccc3)c3ccccc3)CC2)C1c1cccc([N+](=O)[O-])c1 (stereo not drawn) [MANIDIPINE 6300] | > 30 µM | 0.3 µM | > 30 µM | > 30 µM | > 30 µM | – | > 30 µM | > 30 µM | – | – | –
CN(Cc1cnc2nc(N)nc(N)c2n1)c1ccc(C(=O)N[C@@H](CCC(=O)O)C(=O)O)cc1 [METHOTREXATE] | > 30 µM | > 10 µM | > 30 µM | > 10 µM | > 10 µM | – | > 30 µM | – | > 30 µM | – | –
O=C1c2cccc3c2[C@H](CCC3)CN1[C@@H]1CN2CCC1CC2 [PALONOSETRON] | > 30 µM | > 30 µM | > 30 µM | > 30 µM | > 30 µM | > 30 µM | > 30 µM | > 30 µM | – | – | –
OC[C@H]1O[C@@H](n2cnc3c2NC=NC[C@H]3O)C[C@@H]1O [PENTOSTATIN] | > 30 µM | – | > 30 µM | > 30 µM | > 30 µM | > 30 µM | > 30 µM | > 30 µM | – | – | –
NNCCc1ccccc1 [PHENELZINE] | – | – | – | – | – | – | – | – | – | > 30 µM | > 30 µM
Cc1cccc(C)c1NC(=O)CC12CCCN1CCC2 [PILSICAINIDE] | > 30 µM | > 30 µM | > 30 µM | > 30 µM | > 30 µM | > 30 µM | > 30 µM | > 30 µM | – | – | –
CC(C)c1cccc(C(C)C)c1O [PROPOFOL] | – | – | > 30 µM | > 30 µM | > 30 µM | > 30 µM | > 30 µM | – | > 30 µM | – | –
CCCN1CC(NS(=O)(=O)N(CC)CC)CC2Cc3c(O)cccc3CC21 (stereo not drawn) [QUINAGOLIDE] | > 30 µM | > 30 µM | > 30 µM | 0.15 µM | > 30 µM | > 30 µM | 21 µM | 11 µM | – | – | –
C[C@]12CCC(=O)C[C@@H]1CC[C@@H]1[C@@H]2CC[C@]2(C)[C@@H](O)CC[C@@H]12 [STANOLONE] | > 30 µM | > 30 µM | > 30 µM | > 30 µM | > 30 µM | – | > 30 µM | – | – | – | –
O=C1OC(OC(=O)c2cccnc2Nc2cccc(C(F)(F)F)c2)c2ccccc21 (stereo not drawn) [TALNIFLUMATE] | > 30 µM | – | > 30 µM | > 30 µM | > 30 µM | > 30 µM | > 30 µM | > 30 µM | – | – | –
O=S1(=O)CCN(CN2CCS(=O)(=O)NC2)CN1 [TAUROLIDINE] | – | – | > 30 µM | > 30 µM | – | > 30 µM | > 30 µM | 20 µM | – | > 30 µM | > 30 µM
Cc1ccc(C(=O)C(C)CN2CCCCC2)cc1 (stereo not drawn) [TOLPERISONE] | – | – | – | – | – | – | – | – | – | > 30 µM | > 30 µM
COc1ccc2c(C(=S)N(C)CC(=O)O)cccc2c1C(F)(F)F [TOLRESTAT] | – | – | – | – | – | – | – | – | – | > 30 µM | > 30 µM
CCOC(=O)c1c(CSc2ccccc2)n(C)c2cc(Br)c(O)c(CN(C)C)c12 [UMIFENOVIR] | > 30 µM | > 30 µM | > 30 µM | > 30 µM | 3.7 µM | > 30 µM | 21 µM | 26 µM | – | – | –
